SMILES strings stand for the structures.

The test system of one assay is KB. In words: Antiproliferative activity against human KB cells assessed as inhibition of cell growth under hypoxia condition. The format is functional, cell-based.
Assay [1] in a line: Ratio of IC50 for antiproliferative activity against human HL-60 cells assessed as inhibition of cell growth under normoxia condition to IC50 for antiproliferative activity against human HL-60 cells assessed as inhibition of cell growth under hypoxia condition. The format is functional.
Assay [2] is described as follows: Ratio of IC50 for antiproliferative activity against human PC-3 cells assessed as inhibition of cell growth under normoxia condition to IC50 for antiproliferative activity against human PC-3 cells assessed as inhibition of cell growth under hypoxia condition. The format is functional.
The nature of assay [3]: Ratio of IC50 for antiproliferative activity against human Bel-7402 cells assessed as inhibition of cell growth under normoxia condition to IC50 for antiproliferative activity against human Bel-7402 cells assessed as inhibition of cell growth under hypoxia condition. The format is functional.
The nature of assay [4]: Ratio of IC50 for antiproliferative activity against human Eca-109 cells assessed as inhibition of cell growth under normoxia condition to IC50 for antiproliferative activity against human Eca-109 cells assessed as inhibition of cell growth under hypoxia condition. The format is functional.
A short description of assay [5]: Ratio of IC50 for antiproliferative activity against human MCF7 cells assessed as inhibition of cell growth under normoxia condition to IC50 for antiproliferative activity against human MCF7 cells assessed as inhibition of cell growth under hypoxia condition. The format is functional.
For another assay, the system named is HCT-116. In words: Antiproliferative activity against human HCT-116 cells assessed as inhibition of cell growth under hypoxic condition by MTT assay. The format is functional, cell-based. A general note: Tetrazolium dyes change colour on reduction, which living cells bring about.
The next assay concerns NCI-H460. As to the kind of experiment: Antiproliferative activity against human NCI-H460 cells assessed as inhibition of cell growth under hypoxic condition by MTT assay. The format is functional, cell-based.
The subject of the next assay is MCF7. In words: Antiproliferative activity against human MCF7 cells assessed as inhibition of cell growth under hypoxic condition by MTT assay. The format is functional, cell-based.

One may read the IC50 as the point on the concentration scale where inhibition reaches its midpoint. `CCCOCNc1n[n+]([O-])c2ccccc2[n+]1[O-]`: in the assay on KB, the concentration for half-maximal inhibition (IC50) came to 3.74 µM.

With `CCCCOCNc1n[n+]([O-])c2ccccc2[n+]1[O-]`, in the assay on KB, the IC50 was determined as 2.32 µM.

With `CCCCCOCNc1n[n+]([O-])c2ccccc2[n+]1[O-]`, in the assay with KB, the IC50 is 2.9 µM.

With `CC(C)CCOCNc1n[n+]([O-])c2ccccc2[n+]1[O-]`, in the assay on KB, the IC50 worked out at 2.11 µM.

In the case of `[O-][n+]1nc(NCOC2CCCCC2)[n+]([O-])c2ccccc21`, the IC50 in the assay on KB is 1.2 µM.

As to `CCCCCCCOCNc1n[n+]([O-])c2ccccc2[n+]1[O-]`, the IC50 in the assay on KB came out at 3.49 µM.

Regarding `[O-][n+]1nc(NCOCc2ccccc2)[n+]([O-])c2ccccc21`, the IC50 with KB worked out at 4.14 µM.

Turning to `[O-][n+]1nc(NCOCc2ccc(Cl)cc2)[n+]([O-])c2ccccc21`, in the assay on KB, the IC50 was 2.19 µM.

In the case of `CC(OCNc1n[n+]([O-])c2ccccc2[n+]1[O-])c1ccccc1` (stereo unspecified), the IC50 with KB was 2.81 µM.

As for `O=[N+]([O-])c1cccc(COCNc2n[n+]([O-])c3ccccc3[n+]2[O-])c1`, in the assay with KB, the IC50 turned out to be 3.44 µM.

As for `CCCOCNc1n[n+]([O-])c2cc(OC)ccc2[n+]1[O-]`, in the assay on KB, the IC50 is 2.54 µM.

Regarding `CCCCCOCNc1n[n+]([O-])c2cc(OC)ccc2[n+]1[O-]`, in the assay on KB, the half-maximal inhibitory concentration (IC50) came out at 2.51 µM.

On to `COc1ccc2c(c1)[n+]([O-])nc(NCOCc1ccccc1)[n+]2[O-]`, for which the 50% inhibitory concentration (IC50) in the assay on KB is 4.47 µM.

In the case of `[O-][n+]1nc(NCc2ccccc2)[n+]([O-])c2ccccc21`, the “Ratio IC50” value is listed as 4.2 in assay [1]; 2.3 in assay [2]; 2.8 in assay [3]; 5.1 in [4]; 1.9 in [5].

`CCNc1n[n+]([O-])c2ccccc2[n+]1[O-]`: the “Ratio IC50” value in [1] was determined as 1.6; in [2], 4.4; in assay [3], 2.2; in [4] it was 5.4; in assay [5] it was 2.1.

In the case of `CCNc1n[n+]([O-])c2cc(Cl)ccc2[n+]1[O-]`, the “Ratio IC50” value in assay [1] is on record as 5.1; in assay [3], 2.4; in [4], 2.7; in assay [5] it was 3.84.

Turning to `CCNc1n[n+]([O-])c2cc(OC)ccc2[n+]1[O-]`, the “Ratio IC50” value in assay [2] turned out to be 1.2; in assay [3], 1.07; in assay [4], 1.12.

`[O-][n+]1nc(Nc2ccccc2)[n+]([O-])c2ccccc21`: the “Ratio IC50” value stood at 2.5 in assay [1]; 2.3 in assay [2]; 2 in assay [3]; 4.1 in assay [4]; 2.1 in assay [5].

As to `[O-][n+]1nc(NC2CCCCC2)[n+]([O-])c2ccccc21`, the “Ratio IC50” value in [1] was determined as 4.1; in [2] it was 1.5; in assay [3], 1.1; in [4], 2.8; in [5], 1.9.

As to `O=[N+]([O-])c1ccc2c(c1)[n+]([O-])nc(NC1CCCCC1)[n+]2[O-]`, the “Ratio IC50” value amounted to 1.07 in assay [2], 1.68 in assay [3] and 1.6 in assay [4].

On to `[O-][n+]1nc(NCCNc2n[n+]([O-])c3ccccc3[n+]2[O-])nc2ccccc21`, for which the IC50 with HCT-116, with NCI-H460 and with MCF7 was 11.7 µM throughout.

`Cc1ccc2c(c1)[n+]([O-])nc(Nc1ccccc1)[n+]2[O-]`: the “Ratio IC50” value in assay [1] is 1.01; in assay [2], 1.2; in assay [3], 2.07; in [4], 5.31; in assay [5], 2.19.

On to `O=[N+]([O-])c1ccc2c(c1)[n+]([O-])nc(Nc1ccccc1)[n+]2[O-]`, for which the “Ratio IC50” value in assay [3] is reported as 1.44; in assay [4], 1.47; in assay [5], 1.61.

Regarding `O=C(NCCCCCCCCNc1n[n+]([O-])c2ccccc2[n+]1[O-])C(F)(F)F`, the IC50 in the assay on HCT-116, with NCI-H460 and with MCF7 was 11.7 µM in each case.

`O=C(NCCCCCCNc1n[n+]([O-])c2ccccc2[n+]1[O-])C(F)(F)F`: the IC50 in the assay on HCT-116, in the assay with NCI-H460 and in the assay with MCF7 was 11.7 µM in each case.

In the case of `[O-][n+]1nc(NCCCNc2n[n+]([O-])c3ccccc3[n+]2[O-])nc2ccccc21`, the IC50 in the assay on HCT-116, in the assay with NCI-H460 and in the assay with MCF7 was 11.7 µM in each case.

As to `COc1ccc2c(c1)[n+]([O-])nc(NCC1CCCCC1)[n+]2[O-]`, the “Ratio IC50” value in assay [1] is reported as 2.4; in assay [2], 1; in assay [3], 2; in assay [4] it was 1.3; in assay [5], 2.4.

For `CCNc1n[n+]([O-])c2cc(C)ccc2[n+]1[O-]`, the “Ratio IC50” value was determined as 1 in assay [1]; 2.1 in assay [2]; 1.74 in assay [3]; 1.4 in assay [4]; 2.7 in [5].

As to `CCCCCCNc1n[n+]([O-])c2ccccc2[n+]1[O-]`, the “Ratio IC50” value is recorded as 2.8 in assay [1], 1.19 in [2], 1.7 in assay [4] and 1.3 in assay [5].

As for `Cc1ccc2c(c1)[n+]([O-])nc(NCc1ccccc1)[n+]2[O-]`, the “Ratio IC50” value in assay [1] is 1.21; in assay [2], 2.4; in [3], 2.54; in [4], 8.77; in assay [5] it was 3.79.

For `COc1ccc2c(c1)[n+]([O-])nc(NC1CCCCC1)[n+]2[O-]`, the “Ratio IC50” value was 2.2 in [1], 1.6 in [3], 2 in [4] and 2.8 in assay [5].

On to `CCCCCCNc1n[n+]([O-])c2cc(C)ccc2[n+]1[O-]`, for which the “Ratio IC50” value is 2.9 in assay [1], 1.3 in assay [2], 4.7 in assay [4] and 1.3 in [5].

For the compound `CCCCCCNc1n[n+]([O-])c2cc(Cl)ccc2[n+]1[O-]`, the “Ratio IC50” value stood at 4 in assay [1]; 1.4 in assay [2]; 1.6 in assay [3]; 2.6 in assay [4]; 2.1 in assay [5].

Consider `O=[N+]([O-])c1ccc2c(c1)[n+]([O-])nc(NCc1ccccc1)[n+]2[O-]`, for which the “Ratio IC50” value was found to be 1.09 in [1]; 1.89 in [2]; 1.17 in assay [3]; 1.45 in assay [4]; 1.2 in [5].

Regarding `O=C(NCCCCCCCNc1n[n+]([O-])c2ccccc2[n+]1[O-])C(F)(F)F`, the IC50 with HCT-116, in the assay on NCI-H460 and in the assay on MCF7 was 11.7 µM each time.

Regarding `Cc1ccc2c(c1)[n+]([O-])nc(NC1CCCCC1)[n+]2[O-]`, the “Ratio IC50” value stood at 7.9 in assay [1]; 1.2 in assay [2]; 1.1 in [3]; 2.5 in assay [4]; 2 in assay [5].

For the compound `CCCCCCNc1n[n+]([O-])c2cc([N+](=O)[O-])ccc2[n+]1[O-]`, the “Ratio IC50” value in [2] stood at 1.6; in assay [3] it was 1.5; in [4] it was 1.5.

Regarding `Nc1n[n+]([O-])c2ccccc2[n+]1[O-]` [TIRAPAZAMINE], the “Ratio IC50” value is given as 1.1 in [1]; 3.8 in assay [2]; 1.8 in [3]; 6.6 in [4]; 1.7 in assay [5].
